# Assay results from US20090088461A1, “Methods of Treating or Preventing Cardiac Disease Associated With a High Fat Diet” (Synvista Therapeutics, Inc., priority 2007, published 2009).
# Values joined by “and” are separate entries in the source; they are usually repeats but may differ in a detail not shown here. Equal entries are not always repeated. Where two headings read alike, the source gives them in different places.
# Columns and labels:
# [1] = molecular target: T1, AGE-BSA previously crosslinked to the collagen (Bos taurus, UniProt P02769); experiment: Cross-Link Breaking Assay (sandwich enzyme immunoassay); assay type: biochemical; conditions: for Breaking Anti-AGE: anti-AGE antibody; for Breaking Anti-BSA: anti-BSA antibody
# T1 construct: Bovine Serum Albumin (Type V), (BSA) Calbiochem; purchased Calbiochem (BSA Type V); Collaborative Biomedical Products (Biocoat collagen plates)
# Experimental: The present invention also involves a novel sandwich enzyme immunoassay used to ascertain the ability of test compounds to “break” or reverse already formed advanced glycosylation endproducts by detecting the breaking of AGE (Advanced glycosylation endproduct) moieties from AGE-crosslinked protein. This assay comprises:
# a) incubation of AGE-modified bovine serum albumin (AGE BSA) on collagen-coated wells of microtiter plates for a period of 2-6 hours' at a temperature of 37° C.
# b) washing of the wells with PBS-Tween;
# c) application of the test compounds to the washed wells of step b;
# d) incubation of the test compounds applied to the washed wells for an additional 12-24 hours at a temperature of about 37° C.; and
# e) detection of the AGE-breaking using an antibody raised against AGE-ribonuclease or cross-link breaking with an antibody against BSA.
# In order to ascertain the ability of the compounds of the instant invention to “break” or reverse already formed advanced glycosylation endproducts, a novel sandwich enzyme immunoassay was developed which detects breaking of AGE (Advanced glycosylation endproduct) moieties from AGE-crosslinked protein. The assay utilizes collagen-coated 96 well microtiter plates that are obtained commercially. […] Following an incubation period of 16 hours (37° C.) cross-link-breaking is detected using an antibody raised against AGE-ribonuclease or with an antibody against BSA. […] Details of the assay are as follows:
# 1. AGE-BSA stock solutions were prepared as follows. Sodium phosphate buffer (0.4 M) was prepared by dissolving 6 grams of monobasic sodium phosphate in 100 ml of distilled water, 7 grams of dibasic sodium phosphate (0.4 M) in 100 ml of distilled water and adjusting the pH of the dibasic solution to 7.4 with the monobasic solution. Sodium azide (0.02 grams) was added per 100 ml volume to inhibit bacterial growth. The BSA solution was prepared as follows: 400 mg of Type V BSA (bovine serum albumin) was added for each ml of sodium phosphate buffer (above). A 400 mM glucose solution was prepared by dissolving 7.2 grams of dextrose in 100 ml of sodium phosphate buffer (above). The BSA and glucose solutions were mixed 1:1 and incubated at 37° C. for 12 weeks. The pH of the incubation mixture was monitored weekly and adjusted to pH 7.4 if necessary. After 12 weeks, the AGE-BSA solution was dialyzed against PBS for 48 hours with four buffer changes, each at a 1:500 ratio of solution to dialysis buffer. Protein concentration was determined by the micro-Lowry method. The AGE-BSA stock solution was aliquoted and stored at −20° C.
# 2. Working solutions for crosslinking and breaking studies were prepared as follows. Test compounds were dissolved in PBS and the pH was adjusted to pH 7.4 if necessary. AGE-BSA stock solution was diluted in PBS to measure maximum crosslinking and in the inhibitor solution for testing inhibitory activity of compounds. The concentration of AGE-BSA necessary to achieve the optimum sensitivity was determined by initial titration of each lot of AGE-BSA.
# 3. Wash buffer (“PBS-Tween”) was, prepared as follows. PBS was prepared by dissolving the following salts in one liter of distilled water: NaCl, 8 grams; KCl, 0.2 gram, KH2PO4. […] Tween-20 was added to a final concentration of 0.05% (vol/vol).
# 4. Substrates for detection of secondary antibody binding were prepared by diluting the HRP substrate buffer 1:10 in distilled water and mixing with ABTS chromogen 1:50 just prior to use.
# 1. Biocoat plates were blocked with 300 μl of “Superbloc”. Plates were blocked for one hour at room temperature and were washed with PBS-Tween three times with the Dynatech platewasher before addition of test reagents.
# 2. Each experiment was set up in the following manner. The first three wells of the Biocoat plate were used for the reagent blank. Fifty microliters of solutions AGE-BSA were added to test wells in triplicate and only PBS in blank wells.
# [2] = molecular target: cross-linking of glycated bovine serum albumin (AGE-BSA) to the rat tail tendon collagen-coated 96-well plate (Bos taurus, UniProt P02769); experiment: Cross-Linking Inhibition Assay; conditions: for inhibition at 10000 µM: read-out: Relative Cross-link Inhibition (at 10 mM)
# Chain of cross-linking of glycated bovine serum albumin (AGE-BSA) to the rat tail tendon collagen-coated 96-well plate (P02769 25-607): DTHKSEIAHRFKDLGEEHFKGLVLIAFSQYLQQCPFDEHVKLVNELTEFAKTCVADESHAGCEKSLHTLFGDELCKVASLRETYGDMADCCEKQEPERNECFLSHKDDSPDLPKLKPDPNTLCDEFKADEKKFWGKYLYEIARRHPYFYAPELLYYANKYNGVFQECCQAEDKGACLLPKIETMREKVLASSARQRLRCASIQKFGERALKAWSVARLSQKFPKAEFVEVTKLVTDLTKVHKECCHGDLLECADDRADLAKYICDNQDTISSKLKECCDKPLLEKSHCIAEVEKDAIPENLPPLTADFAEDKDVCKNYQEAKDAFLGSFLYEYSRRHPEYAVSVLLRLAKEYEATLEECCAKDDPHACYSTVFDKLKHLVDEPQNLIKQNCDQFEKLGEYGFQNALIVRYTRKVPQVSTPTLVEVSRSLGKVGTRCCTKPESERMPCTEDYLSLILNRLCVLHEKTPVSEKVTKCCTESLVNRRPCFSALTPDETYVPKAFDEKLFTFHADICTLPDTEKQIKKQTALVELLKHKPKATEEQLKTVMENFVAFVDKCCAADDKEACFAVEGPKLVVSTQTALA
# Experimental: The following method was used to evaluate the ability of the compounds of the present invention to inhibit the cross-linking of glycated bovine serum albumin (AGE-BSA) to the rat tail tendon collagen-coated 96-well plate.
# The blocking solution was removed from the wells by, washing the plate twice with PBS-'Tween 20 solution (0.05% Tween 20) using a NUNq-multiprobe or Dynatech ELISA-plate washer. Cross-linking of AGE-BSA (1 to 10 mg per well depending on the batch of AGE-BSA) to rat tail tendon collagen coated plate was performed with and without the testing ‘compound dissolved in PBS buffer at pH 7.4 at the desired concentrations by the, addition of 50 μl each of the AGE-BSA diluted in PBS or in the solution of test compound at 37° C. for 4 hours.
# Unbrowned BSA in PBS buffer with or without testing compound were added to the separate wells as the blanks. The un-cross-linked AGE-BSA was then removed by washing the wells three times with PBS-Tween buffer. The amount of AGE-BSA cross-linked to the tail tendon collagen-coated plate was then quantitated using a polyclonal antibody raised against AGE-RNase. After a one-hour incubation period, AGE antibody was removed by washing 4 times with PBS-Tween.
# The bound AGE antibody was then detected with the addition of horseradish peroxidase-conjugated secondary antibody—goat anti-rabbit immunoglobulin and incubation for 30 minutes. […] The reaction was allowed for an additional 15 minutes and the absorbance was read at 410 nm in a Dynatech plate reader.
# T1 sequence (P02769 25-607): as above
# T1 sequence (P02454 152-1207 partner limits assumed): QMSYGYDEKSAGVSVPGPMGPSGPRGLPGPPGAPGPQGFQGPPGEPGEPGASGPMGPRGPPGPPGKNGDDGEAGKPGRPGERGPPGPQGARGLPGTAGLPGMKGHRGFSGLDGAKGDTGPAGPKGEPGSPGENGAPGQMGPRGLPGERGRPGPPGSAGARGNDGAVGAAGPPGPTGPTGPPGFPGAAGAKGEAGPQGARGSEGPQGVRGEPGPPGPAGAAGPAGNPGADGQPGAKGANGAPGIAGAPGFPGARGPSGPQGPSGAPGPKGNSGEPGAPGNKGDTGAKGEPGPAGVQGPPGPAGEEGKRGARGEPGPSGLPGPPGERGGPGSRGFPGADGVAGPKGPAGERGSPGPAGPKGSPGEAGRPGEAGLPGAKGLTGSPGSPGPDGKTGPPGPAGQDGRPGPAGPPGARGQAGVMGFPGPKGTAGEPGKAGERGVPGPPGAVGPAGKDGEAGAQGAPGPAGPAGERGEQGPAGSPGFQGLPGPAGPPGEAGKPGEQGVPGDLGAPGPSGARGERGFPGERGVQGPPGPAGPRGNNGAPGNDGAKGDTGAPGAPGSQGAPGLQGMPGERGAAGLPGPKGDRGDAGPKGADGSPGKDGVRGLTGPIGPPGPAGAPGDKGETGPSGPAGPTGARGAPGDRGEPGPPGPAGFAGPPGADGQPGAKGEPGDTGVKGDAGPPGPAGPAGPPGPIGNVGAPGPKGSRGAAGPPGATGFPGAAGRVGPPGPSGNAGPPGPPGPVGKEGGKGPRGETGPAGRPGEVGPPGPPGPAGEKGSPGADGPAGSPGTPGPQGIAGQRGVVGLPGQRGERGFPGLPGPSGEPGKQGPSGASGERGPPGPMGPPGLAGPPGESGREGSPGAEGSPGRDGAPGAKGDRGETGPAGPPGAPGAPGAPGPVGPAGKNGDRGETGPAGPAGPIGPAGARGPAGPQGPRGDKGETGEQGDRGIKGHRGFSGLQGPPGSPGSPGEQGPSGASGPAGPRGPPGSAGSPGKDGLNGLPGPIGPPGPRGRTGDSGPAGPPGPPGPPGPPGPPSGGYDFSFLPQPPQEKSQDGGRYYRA
# T1 sequence (P02466 86-1125 partner limits assumed): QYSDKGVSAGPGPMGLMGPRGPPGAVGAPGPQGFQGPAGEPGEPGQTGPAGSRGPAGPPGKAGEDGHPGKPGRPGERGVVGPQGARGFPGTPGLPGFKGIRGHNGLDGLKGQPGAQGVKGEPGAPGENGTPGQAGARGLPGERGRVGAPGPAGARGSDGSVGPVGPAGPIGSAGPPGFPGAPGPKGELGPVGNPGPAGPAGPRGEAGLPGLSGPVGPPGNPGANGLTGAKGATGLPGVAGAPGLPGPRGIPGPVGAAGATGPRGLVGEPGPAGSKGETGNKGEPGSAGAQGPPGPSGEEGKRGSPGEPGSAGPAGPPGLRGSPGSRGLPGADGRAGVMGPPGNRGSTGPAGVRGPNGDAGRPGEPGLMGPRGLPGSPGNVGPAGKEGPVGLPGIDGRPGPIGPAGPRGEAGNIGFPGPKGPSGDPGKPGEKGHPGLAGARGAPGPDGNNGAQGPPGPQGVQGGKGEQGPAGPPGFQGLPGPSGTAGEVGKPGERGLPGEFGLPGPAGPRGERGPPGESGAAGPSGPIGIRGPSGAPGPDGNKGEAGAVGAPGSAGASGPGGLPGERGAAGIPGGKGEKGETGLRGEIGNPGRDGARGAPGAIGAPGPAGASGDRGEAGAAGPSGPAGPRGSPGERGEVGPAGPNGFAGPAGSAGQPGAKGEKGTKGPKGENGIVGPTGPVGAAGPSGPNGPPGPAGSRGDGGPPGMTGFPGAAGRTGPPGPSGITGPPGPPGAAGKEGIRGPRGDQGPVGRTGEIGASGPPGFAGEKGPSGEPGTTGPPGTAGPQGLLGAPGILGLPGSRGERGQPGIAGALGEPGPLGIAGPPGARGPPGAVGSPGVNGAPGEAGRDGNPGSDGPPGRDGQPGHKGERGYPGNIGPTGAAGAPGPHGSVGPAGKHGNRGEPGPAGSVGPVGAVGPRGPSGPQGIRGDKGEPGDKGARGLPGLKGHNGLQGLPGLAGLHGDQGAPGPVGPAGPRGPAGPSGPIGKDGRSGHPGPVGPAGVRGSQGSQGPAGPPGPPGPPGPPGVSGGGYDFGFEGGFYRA
compound,measurement,setting,value
COC(=O)C[n+]1csc2ccccc21.[Br-] [3-(2-methoxy-2-oxoethyl)-benzothiazolium bromide],Breaking Anti-AGE,[1]; at 30 mM,66%
same,Breaking Anti-BSA,[1]; at 30 mM,37%
same,IC50,[2],> 10000 µM
same,inhibition at 10000 µM,[2],35%
CCOC(=O)c1ccc(NC(=O)C[n+]2csc(CCO)c2C)cc1.[Br-] [3-(2-4′-carbethoxyanilino)-2-oxoethyl]-4-methyl-5-(2′-hydroxyethyl)-thiazolium bromide],Breaking Anti-AGE,[1]; at 10 mM,48%
same,Breaking Anti-BSA,[1]; at 10 mM,57%
same,Relative Cross-link Inhibition,[2]; 1 mM,8.8% (1 mm)
"Nc1ccc2c(c1)sc(N)[n+]2CC(=O)c1ccc(Br)cc1.[Br-] [2,6-diamino-3 (2-(4′-bromophenyl)-2-oxoethyl]benzothiazolium bromide]",Breaking Anti-AGE,[1]; at 10 mM,27%
same,Breaking Anti-BSA,[1]; at 10 mM,44%
"COC(=O)C[n+]1csc(C)c1C.[Br-] [3-(2-methoxy-2-oxoethyl)-4,5-dimethylthiazolium bromide]",Breaking Anti-AGE,[1]; at 30 mM,63%
same,Breaking Anti-BSA,[1]; at 30 mM,47%
same,IC50,[2],480 µM
Cc1c(CCO)sc[n+]1Cc1ccccc1[N+](=O)[O-].[Br-] [3-(2′-nitrobenzyl)-4-methyl-5-(2′-hydroxyethyl)-thiazolium bromide],Breaking Anti-AGE,[1]; at 10 mM,11%
same,Breaking Anti-BSA,[1]; at 10 mM,13%
"Nc1ccc2c(c1)sc(N)[n+]2CC(=O)c1ccc(F)cc1.[Br-] [2,6-diamino-3 (2-(4′-fluorophenyl-2-oxoethyl]benzothiazolium bromide]",Breaking Anti-AGE,[1]; at 10 mM,24%
same,Breaking Anti-BSA,[1]; at 10 mM,40%
NC(=O)C[n+]1csc2ccccc21.[Br-] [3-(2-amino-2-oxoethyl)-benzothiazolium bromide],Breaking Anti-AGE,[1]; concentration not given,77%
same,Breaking Anti-BSA,[1]; concentration not given,65%
same,IC50,"[1]; detection with anti-AGE antibody, read-out: IC50 (mM) Anti-AGE",0.4 mM
same,IC50,[2],20 µM
CC(=O)C[n+]1ccsc1.[Cl-] [3-(2-methyl-2-oxoethyl)thiazolium chloride],IC50,"[1]; IC50 (mM) Anti-AGE, detection with anti-AGE antibody",0.83 mM
same,IC50,"[1]; IC50 (mM) Anti-BSA, detection with anti-BSA antibody",0.75 mM
same,Breaking Anti-AGE,[1]; concentration not given,56%
same,Breaking Anti-BSA,[1]; concentration not given,93%
"Cc1cc(C)c(S(=O)(=O)[O-])c(C)c1.Nc1sc(-c2ccc3c(c2)OCCCO3)c[n+]1N [2,3-Diamino-5-(3′,4′-trimethylenedioxyphenyl)thiazolium mesitylene sulfonate]",Breaking Anti-AGE,[1]; at 1 mM,13%
same,Breaking Anti-BSA,[1]; at 1 mM,42%
COC(=O)C[n+]1csc(C)c1.[Br-] [3-(2-methoxy-2-oxoethyl)-5-methyl-thiazolium bromide],Breaking Anti-AGE,[1]; at 30 mM,72%
same,Breaking Anti-BSA,[1]; at 30 mM,27%
same,IC50,[2],3200 µM
"Cc1c(CCO)sc[n+]1CC(=O)Nc1c(C(C)C)cccc1C(C)C.[Br-] [3-(2-(2′,6′-Diisopropylanilino)-2-oxoethyl]-4-methyl-5-(2′-hydroxyethyl)-thiazolium bromide]",Breaking Anti-AGE,[1]; at 10 mM,31%
same,Breaking Anti-BSA,[1]; at 10 mM,48%
same,Relative Cross-link Inhibition (at 10 mM),[2]; at 10 mM,19%
Cc1csc[n+]1CC(=O)c1ccccc1.[Br-] [3-(2-phenyl-2-oxoethyl)-4-methylthiazolium bromide],Breaking Anti-AGE,[1]; at 30 mM,68%
same,Breaking Anti-BSA,[1]; at 30 mM,66%
same,IC50,[2],5600 µM
"C[n+]1ccn(CC(=O)c2cc(C(C)(C)C)c(O)c(C(C)(C)C)c2)c1 [1-methyl-3-(2-(3′,5′-di-tert-butyl-4′-hydroxyphenyl)-2-oxoethyl]-imidazolium bromide]",Breaking Anti-AGE,[1]; at 10 mM,56%
same,Breaking Anti-BSA,[1]; at 10 mM,38%
same,IC50,[2],4500 µM
Cc1c[n+](CC(=O)c2ccccc2)cs1 [3-(2-phenyl-2-oxoethyl)-5-methyl-thiazolium bromide],IC50,[2],12600 µM
"Cc1csc[n+]1CC(=O)c1cc(C(C)(C)C)c(O)c(C(C)(C)C)c1.[Br-] [3-[2-(3′,5′-di-tert-butyl-4′-hydroxyphenyl)-2-oxoethyl]-4-methyl-thiazolium bromide]",Breaking Anti-AGE,[1]; at 0.3 mM,14%
same,Breaking Anti-BSA,[1]; at 0.3 mM,2%
same,Relative Cross-link Inhibition,[2]; 0.3 mM,24% @ 0.3 mM
"Cc1sc[n+](CC(=O)c2ccccc2)c1C.[Br-] [3-(2-phenyl-2-oxoethyl)-4,5-dimethylthiazolium bromide]",Breaking Anti-AGE,[1]; at 30 mM,56%/ND (30)
same,inhibition at 10000 µM,[2],37%
"Nc1sc2ccccc2[n+]1N [2,3-diaminio-benzothiazolium mesitylenesulfonate]",Breaking Anti-AGE,[1]; at 30 mM,87%
same,Breaking Anti-BSA,[1]; at 30 mM,54%
"O=C(C[n+]1ccsc1)c1ccc2c(c1)OCCCO2.[Br-] [3-(2-(3′,4′-trimethylenedioxyphenyl)-2-oxoethyl]-thiazolium bromide]",Breaking Anti-AGE,[1]; at 10 mM,17%
same,Breaking Anti-BSA,[1]; at 10 mM,18%
CCCCCc1ccc(C(=O)C[n+]2csc(CCO)c2C)cc1.[Br-] [3-(2-(4′-n-pentylphenyl)-2-oxoethyl]-4-methyl-5-(2′-hydroxyethyl)-thiazolinium],Relative Cross-link Inhibition,[2]; 3 mM,52% @ 3 mM
CC(C)(C)C(=O)C[n+]1ccsc1.[Br-] [3-(2-tert-butyl-2-oxoethyl)-thiazolium bromide],Breaking Anti-AGE,[1]; at 10 mM,28%
same,Breaking Anti-BSA,[1]; at 10 mM,37%
Cc1c(CCO)sc[n+]1CC(=O)c1ccc(Br)cc1 [3-(2-(41-bromophenyl]-2-oxoethyl)-4-methyl-5-(2-hydroxyethyl)thiazolium bromide],IC50,[2],2950 µM
O=C(C[n+]1ccsc1)c1ccc(Br)cc1.[Br-] [3-(2-(4^1-bromophenyl]-2-oxoethyl)-thiazolium bromide],Breaking Anti-AGE,[1]; at 30 mM,76%
same,Breaking Anti-BSA,[1]; at 30 mM,25%
COC(=O)C[n+]1csc(CCO)c1C [3-(2-methoxy-2-oxoethyl)-4-methyl-5-(2-hydroxyethyl)-thiazolium bromide],inhibition at 10000 µM,[2],38%
COc1cccc(C[n+]2csc(CCO)c2C)c1.[Cl-] [3-(3′-methoxybenzyl)-4-methyl-5-(2′-hydroxyethyl)-thiazolium chloride],Breaking Anti-AGE,[1]; at 10 mM,4% and 14%
same,Breaking Anti-BSA,[1]; at 10 mM,19% and 25%
"Cc1sc[n+](CC(=O)c2cc(C(C)(C)C)c(O)c(C(C)(C)C)c2)c1C [3-(2-(3′,5′-di-tert-butyl-4′-hydroxypheny].)-2-oxoethyl]-4,5-dimethyl-thiazolium bromide]",IC50,[2],160 µM
3-(2-(3′-methoxyphenyl]-2-oxoethyl)-thiazolium bromide,Breaking Anti-AGE,[1]; at 10 mM,22%
same,Breaking Anti-BSA,[1]; at 10 mM,44%
NC(=O)C[n+]1ccsc1 [3-(2-amino-2-oxoethyl)-thiazolium bromide],IC50,[2],530 µM
"C=Cc1sc[n+](CC(=O)c2cc(C(C)(C)C)c(O)c(C(C)(C)C)c2)c1C [3-(2-(3′,5′-tert-butyl-4′-hydroxyphenyl)-2-oxoethyl)-4-methyl-5-vinyl-thiazolium bromide]",Breaking Anti-AGE,[1]; at 0.3 mM,32%
same,Breaking Anti-BSA,[1]; at 0.3 mM,50%
same,IC50 (mM) Anti-BSA,[1]; detection with anti-BSA antibody,ND/0/60%
"COc1ccc(C(=O)C[n+]2c(N)sc3cc(N)ccc32)cc1.[Br-] [2,6-diamino-3 (2-(4′-methoxyphenyl)-2-oxoethyl]benzothiazolium bromide]",Breaking Anti-AGE,[1]; at 10 mM,29%
same,Breaking Anti-BSA,[1]; at 10 mM,35%
"Cc1c(CCO)sc[n+]1Cc1c(Cl)cccc1Cl.[Cl-] [3-(2′,6′-dichlorobenzyl)-4-methyl-5-(2′-15 hydroxyethyl)-thiazolium chloride]",Breaking Anti-AGE,[1]; at 10 mM,6%
same,Breaking Anti-BSA,[1]; at 10 mM,27%
Cc1c(CCO)sc[n+]1Cc1ccccc1.[Cl-] [3-benzyl-5-(2-hydroxyethyl)-4-methyl thiazolium chloride],Breaking Anti-AGE,[1]; at 30 mM,65%
same,Breaking Anti-BSA,[1]; at 30 mM,61%
